In the NIST ThermoML archive (doi:10.1021/acs.jced.8b00975):
Numbers after ± are expanded uncertainties.

Conditions: Liquid, Vibrating tube method

C=C(C)C(=O)OCCN(C)C [2-(dimethylamino)ethyl methylpropenoate]
mass density [kg/m3]
Conditions	100 kPa	5000 kPa	10000 kPa	15000 kPa	20000 kPa	25000 kPa	30000 kPa	35000 kPa
293.15 K	933.13 ± 0.54	936.87 ± 0.55	940.43 ± 0.55	943.83 ± 0.55	947.11 ± 0.56	950.3 ± 0.56	953.43 ± 0.56	956.52 ± 0.57
303.15 K	923.03 ± 0.54	926.88 ± 0.55	930.61 ± 0.55	934.24 ± 0.56	937.79 ± 0.56	941.28 ± 0.56	944.74 ± 0.57	948.19 ± 0.57
313.15 K	914.01 ± 0.54	917.99 ± 0.55	921.97 ± 0.55	925.87 ± 0.56	929.71 ± 0.56	933.48 ± 0.57	937.2 ± 0.57	940.87 ± 0.57

CCCCO [butan-1-ol]
mass density [kg/m3]
Conditions	100 kPa	5000 kPa	10000 kPa	15000 kPa	20000 kPa	25000 kPa	30000 kPa	35000 kPa
293.15 K	809.28 ± 0.52	813.04 ± 0.52	816.54 ± 0.53	819.83 ± 0.55	822.97 ± 0.56	826 ± 0.57	828.99 ± 0.58	831.99 ± 0.6
303.15 K	801.9 ± 0.52	806 ± 0.53	809.77 ± 0.54	813.26 ± 0.55	816.52 ± 0.56	819.61 ± 0.57	822.58 ± 0.59	825.48 ± 0.6
313.15 K	794.32 ± 0.52	798.42 ± 0.53	802.22 ± 0.54	805.8 ± 0.55	809.2 ± 0.56	812.49 ± 0.58	815.73 ± 0.59	818.97 ± 0.61

CCO [ethanol]
mass density [kg/m3]
Conditions	100 kPa	5000 kPa	10000 kPa	15000 kPa	20000 kPa	25000 kPa	30000 kPa	35000 kPa
293.15 K	788.94 ± 0.51	793.35 ± 0.52	797.51 ± 0.53	801.44 ± 0.54	805.18 ± 0.55	808.74 ± 0.57	812.17 ± 0.58	815.49 ± 0.6
303.15 K	780.83 ± 0.51	785.54 ± 0.52	789.89 ± 0.53	793.92 ± 0.54	797.7 ± 0.56	801.28 ± 0.57	804.72 ± 0.59	808.06 ± 0.6
313.15 K	772.04 ± 0.51	776.85 ± 0.52	781.35 ± 0.53	785.59 ± 0.55	789.62 ± 0.56	793.47 ± 0.58	797.2 ± 0.59	800.84 ± 0.61

CO [methanol]
mass density [kg/m3]
Conditions	100 kPa	5000 kPa	10000 kPa	15000 kPa	20000 kPa	25000 kPa	30000 kPa	35000 kPa
293.15 K	791.15 ± 0.51	795.92 ± 0.52	800.41 ± 0.53	804.64 ± 0.54	808.67 ± 0.55	812.52 ± 0.56	816.25 ± 0.58	819.89 ± 0.59
303.15 K	781.84 ± 0.51	786.9 ± 0.52	791.61 ± 0.53	796.01 ± 0.54	800.14 ± 0.56	804.05 ± 0.57	807.78 ± 0.58	811.37 ± 0.6
313.15 K	772.35 ± 0.51	777.48 ± 0.52	782.37 ± 0.53	786.99 ± 0.55	791.38 ± 0.56	795.59 ± 0.57	799.69 ± 0.59	803.73 ± 0.61

CCCCCO [pentan-1-ol]
mass density [kg/m3]
Conditions	100 kPa	5000 kPa	10000 kPa	15000 kPa	20000 kPa	25000 kPa	30000 kPa	35000 kPa
293.15 K	815.25 ± 0.62	818.83 ± 0.64	822.19 ± 0.66	825.37 ± 0.68	828.41 ± 0.7	831.36 ± 0.72	834.24 ± 0.74	837.11 ± 0.76
303.15 K	808.05 ± 0.62	811.93 ± 0.64	815.5 ± 0.66	818.82 ± 0.68	821.92 ± 0.7	824.88 ± 0.72	827.74 ± 0.75	830.55 ± 0.77
313.15 K	800.67 ± 0.62	804.61 ± 0.64	808.28 ± 0.66	811.75 ± 0.68	815.06 ± 0.71	818.26 ± 0.73	821.41 ± 0.75	824.56 ± 0.77

CCCO [propan-1-ol]
mass density [kg/m3]
Conditions	100 kPa	5000 kPa	10000 kPa	15000 kPa	20000 kPa	25000 kPa	30000 kPa	35000 kPa
293.15 K	803.17 ± 0.52	807.25 ± 0.53	811.02 ± 0.54	814.54 ± 0.55	817.87 ± 0.56	821.05 ± 0.57	824.15 ± 0.59	827.21 ± 0.6
303.15 K	795.52 ± 0.52	799.83 ± 0.53	803.8 ± 0.54	807.49 ± 0.55	810.95 ± 0.56	814.23 ± 0.58	817.38 ± 0.59	820.48 ± 0.61
313.15 K	787.3 ± 0.52	791.61 ± 0.53	795.67 ± 0.54	799.52 ± 0.55	803.19 ± 0.57	806.72 ± 0.58	810.15 ± 0.6	813.5 ± 0.61
